Source: patent US7923471B2, “Method of treating dry eye disorders and uveitis” (Alcon, Inc., priority 2004, dated 2011)
Marks after values point to notes of the source that are not given here.

Tests used:
neutrophils = settings: compared with lipoxin A4; cited from earlier work
[1] = test system: endotoxin-induced uveitis in rats; assay: Endotoxin-induced uveitis in rats: ocular neutrophil (PMN) content by myeloperoxidase activity; assay type: in vivo, female Lewis rats; settings: 24 h post endotoxin; for Myeloperoxidase (x ± standard deviation): 5 μL topical ocular at endotoxin injection and 4 h later, vehicle 164 ± 46
Method: Compound 1 was evaluated for its ability to suppress neutrophil influx into the rat eye in a model of endotoxin-induced uveitis. The compound was prepared at concentrations of 0.01%, 0.1%, 1.0% w/v in an ophthalmic suspension vehicle, and dexamethasone (Sigma-Aldrich Company, St. Louis, Mo.) formulated in the same vehicle served as reference compound. Uveitis was induced by subplantar injection of endotoxin (200 μg in 0.1 mL saline) in the right hind paw of female Lewis rats (5/group). Test compound of vehicle (5 μL) was administered topically to each eye of the experimental animals at the time of endoxtoxin injection and again 4 hours later. Twenty four hours post endotoxin injection, animals were sacrificed by CO2 inhalation, and total ocular neutrophil (PMN) content was assessed indirectly by determination of myeloperoxidase activity. Ocular PMN content in each group was then compared with that observed in the vehicle-treated group using Dunnet's t-test.

rabbit model of dry eye [2] = assay: Rabbit model of dry eye (lacrimal gland ConA injection followed by desiccation): corneal staining with methylene blue; assay type: in vivo, New Zealand white rabbits; settings: 50 μl topical twice a day, ConA-injected rabbit eyes, 72 h desiccation
Method: Compound 1 was evaluated in a rabbit model of dry eye. New Zealand white rabbits (approximately 2.5 kg; obtained from Myrtle's Rabbitry, Thompson Station, Tenn.) were randomized and dosed topically twice a day with either 50 μl of compound 1 formulated in 0.064%/BSS® at concentrations of 1, 10, or 100 μM, or with 0.064%/BSS® vehicle. After 24 h the rabbits were anesthetized by subcutaneous administration of ketamine hydrochloride (30 mg/kg) and xylazine (6 mg/kg) and each rabbit received bilateral injections of Conconavilin A (ConA) (300 μg/30 μl) or saline (30 μl). Desiccation was initiated one day following lacrimal gland injection by placing conscious animals in an environmental chamber (20-30% humidity, […]). Following 72 hours of exposure to environment, the animals were assessed for corneal staining upon exposure of the cornea to the dye methylene blue; less staining indicates less damage to the cornea. The rabbits were anesthetized by subcutaneous administration of ketamine hydrochloride (30 mg/kg) and xylazine (6 mg/kg). Sutures were placed in each upper and lower eyelid and lifted to form a corneal/conjunctival cup. Methylene blue dye (1 mL, 1% in distilled water) was added to the cup for five minutes and the excess removed by washing with 200 mL of BSS®. The contralateral eye was then stained using the same procedure. Rabbits were euthanized immediately following the staining procedure and the eyes were excised. The corneas were isolated and a 9.5 mm punch of the cornea was placed overnight in 2 mL of acetone/saturated sodium sulfate (7:3 v/v). The concentration of the extracted dye was determined spectrophotometrically by measuring its absorbance at λ=660 nanometers (A660). Percent inhibition was calculated as {1−[(A660test item−A660Normal)/(A660BSS−A660Normal)]}×100, where A660test item is the absorbance of dye from ConA-injected eyes dosed with compound 1, A660Normal is the absorbance of dye from saline-injected eyes, and A660BSS is the absorbance of dye in ConA-injected eyes dosed with 0.064% ethanol/BSS® solution vehicle. A higher percent inhibition of staining indicates more protection of the cornea from damage.
(§1) The % inhibition of corneal staining and TBUT data are presented below in table 1, with 15S-HETE (Biomol Research Laboratories, Plymouth Meeting, Pa.) treatment of ConA-injected eyes used as a positive control.

rabbit model of dry eye [3] = assay: Rabbit model of dry eye (lacrimal gland ConA injection followed by desiccation): tear breakup time (TBUT); assay type: in vivo, New Zealand white rabbits; settings: ConA-injected rabbit eyes, baseline = saline-injected, vehicle-treated eyes
Method: A second group of animals was evaluated for tear film quality by measuring each animal's tear breakup time (TBUT). Using the same experimental protocol as above for inducing rabbit ocular damage, TBUT was determined daily by instilling 5 μL of sodium fluorescein into the cul de sac and manually blinking the lids to distribute the fluroescein within the tear film. Under slit lamp observation, the eye was held open and the time whereby one or more black spots or streaks appeared in the precorneal tear film was recorded. The rabbits were euthanized 3 days following ConA injection. Larger TBUT values indicate better tear film quality and more protection from ocular damage. TBUT data is expressed as % of baseline, with baseline TBUT being that observed for saline-injected, vehicle-treated eyes.
as §1

Row | SMILES | inhibition of LTB4-induced chemotaxis of neutrophils (neutrophils) | % inhibition (myeloperoxidase / ocular PMN content vs vehicle) ([1]; 0.1 % w/v topical ocular) | Myeloperoxidase (x ± standard deviation) ([1]; 0.1 % w/v) [μM/min/100 mg] | % Inhibition of Corneal Staining, ±S.D. (rabbit model of dry eye [2]; 1 μM) | TBUT, % of Baseline, ±S.D. (rabbit model of dry eye [3]; 1 μM topical twice a day) | also measured
1 | CCCCC[C@H](O)[C@H](O)CO [Compound 2] | as potently as lipoxin A4 | – | – | – | – | –
2 | C[C@@H]1C[C@H]2[C@@H]3CCC4=CC(=O)C=C[C@]4(C)[C@@]3(F)[C@@H](O)C[C@]2(C)[C@@]1(O)C(=O)CO [Dexamethasone, dexamethasone, reference compound] | – | 91* % | 15 ± 7 | – | – | –
3 | CCCCC[C@H](O)/C=C/C=C\C/C=C\C/C=C\CCCC(=O)O [Compound 15S-HETE, 15S-HETE, reference compound] | – | – | – | 77 ± 18^b % | 54 ± 21^b % of Baseline | –
4 | COC(=O)CCC[C@H](O)[C@H](O)CO [Compound 1] | as potently as lipoxin A4 | 2% | 161 ± 37 | 75 ± 12^b % | 67 ± 17^b % of Baseline | % Inhibition of Corneal Staining, ±S.D. (rabbit model of dry eye [2]; 10 μM): 54 ± 9^b,c %; % Inhibition of Corneal Staining, ±S.D. (rabbit model of dry eye [2]; 100 μM): 38 ± 34^b,c %; TBUT, % of Baseline, ±S.D. (rabbit model of dry eye [3]; 10 μM topical twice a day): 45 ± 17^b % of Baseline; TBUT, % of Baseline, ±S.D. (rabbit model of dry eye [3]; 100 μM topical twice a day): 51 ± 18^b % of Baseline; % inhibition (myeloperoxidase / ocular PMN content vs vehicle) ([1]; 0.01 % w/v topical ocular): 13%; Myeloperoxidase (x ± standard deviation) ([1]; 0.01 % w/v): 143 ± 64 μM/min/100 mg; % inhibition (myeloperoxidase / ocular PMN content vs vehicle) ([1]; 1.0 % w/v topical ocular): 41* %; Myeloperoxidase (x ± standard deviation) ([1]; 1.0 % w/v): 97 ± 35 μM/min/100 mg
